“Also recorded” adds a separate entry of the source. Structures can show the parent of a compound that is named as a salt.

The values below come from US20250049758A1, “Danegaptide Formulation for Application in the Eye” (Breye Therapeutics APS, priority 2021, published 2025).

A short description of data set [1]: Water solubility. The format is physicochemical. The source says:
Danegaptide as a HCL salt is water-soluble. To investigate the viability of this drug, a melt extrusion formulation strategy was chosen, and six different formulations based on various viable excipients feasible for the melt extrusion process were manufactured with approximately 20% drug load.

The test system of data set [2] is retinal endothelial cell coupling. As to conditions: in vitro; cited from earlier work.
The subject of data set [3] is Gap-Junction coupling. Briefly: In vitro and in vivo pre-clinical studies, Gap-Junction coupling under stressed conditions.
Data set [4] can be described thus: Dissolution testing of prototype formulations in 0.9% NaCl at 37° C., HPLC. The settings on record: prolonged storage of the dosage form at 37° C. The format is physicochemical. Here is the method:
Described below is the dissolution behavior of Danegaptide when formulated in 6 different melt extrusion formulations. The formulations were manufactured with a drug load of about 20%. The formulations were exposed to physiological salt solutions at 37° C. and stored for several months. The media was changed regularly and analyzed for content of Danegaptide.
The dissolution process was investigated for each of the 6 manufactured prototypes by inserting the prototypes into a 0.9% NaCl solution and test the dissolution of Danegaptide over time by HPLC. The experiment was conducted over 170 days.
Fifteen dose units of each prototype was weighed and were wrapped into a permeable filter bag consisting of empty triangular tea bags made of polymeric material, with a mesh size of less than 0.5 μm. The bags were each inserted into glass vials and 10 ml 0.9% NaCl solution media were added to each vial. The vials were placed in a water bath at 37° C. At regular intervals the media was drained and 10 ml new media was added and the vials were returned to the water bath. […] One day delivery periods were also tested several times during the dissolution period. […] In addition, an informative impurity profile was recorded. In relation to this, the pH value of each collected media sample was determined. […]
The Danegaptide content was quantified to a Danegaptide reference substance. […]

The nature of data set [5]: Toxicology program. The format is in vivo. The settings on record: high concentration levels administered locally in selected tissues or systemically. The source says:
However, the protective effects of danegaptide from stress-induced cell-cell uncoupling or cellular loss may be diminished or lost at higher concentrations of danegaptide.

Data set [6] deals with vascular leakage. The settings on record: cited from earlier work.
The subject of data set [7] is retinal vascular cells. As to conditions: cited from earlier work.

Regarding `NCC(=O)N1C[C@H](NC(=O)c2ccccc2)C[C@H]1C(=O)O` [Danegaptide as a HCL salt], the Water solubility entry in data set [1] is on record as “water-soluble”.
Turning to `NCC(=O)N1C[C@H](NC(=O)c2ccccc2)C[C@H]1C(=O)O` [Danegaptide, (2S,4R)-1-(2-aminoacetyl)-4-benzoylamino-pyrrolidine-2-carboxylic acid], the “Concentration giving optimal protection from high-glucose induced cell-cell uncoupling” value in data set [2] was 50 to 100 nM. Also, the “Optimal concentration in the target tissue, such as the retina, to maintain Gap-Junction coupling” value in data set [3] was 50 to 100 nM. For the same molecule, the “Degradation of Danegaptide during the dissolution period (HPLC impurity profile)” value in data set [4] was “probably only happened to a smaller extent; also recorded: did not indicate a significant degradation pattern”. In data set [5], the Toxicity entry was “no toxicity concerns”. In addition, the Vascular leakage entry in data set [6] is on record as “reduce vascular leakage”. The “Cell-cell GJ uncoupling” value in data set [7] (high glucose condition) was “prevent cell-cell GJ uncoupling”. For the same molecule, the High glucose-induced apoptosis entry in data set [7] (retinal vascular cells) is “prevent high glucose-induced apoptosis”.
